Assay results reported in ChEMBL document CHEMBL5291721, “A preclinical secondary pharmacology resource illuminates target-adverse drug reaction associations of marketed drugs” (Nat Commun, 2023).

Tests used:
[1] = biological target: Vasopressin V1a receptor (Homo sapiens, UniProt P37288)
[2] = biological target: T1, Adenosine receptor A3 (Homo sapiens, UniProt P0DMS8)
T1 sequence (P0DMS8 whole entry): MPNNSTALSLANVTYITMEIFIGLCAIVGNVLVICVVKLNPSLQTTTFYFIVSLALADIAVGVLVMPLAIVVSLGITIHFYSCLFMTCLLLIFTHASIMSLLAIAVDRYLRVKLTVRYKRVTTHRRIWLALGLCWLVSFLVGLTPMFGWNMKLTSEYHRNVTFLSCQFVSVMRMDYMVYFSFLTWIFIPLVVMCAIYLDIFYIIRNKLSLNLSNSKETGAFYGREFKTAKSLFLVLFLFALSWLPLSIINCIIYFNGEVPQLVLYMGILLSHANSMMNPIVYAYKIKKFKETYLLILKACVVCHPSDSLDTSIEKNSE

[3] = biological target: T2, Thromboxane A2 receptor (Homo sapiens, UniProt P21731)
T2 sequence (P21731 whole entry): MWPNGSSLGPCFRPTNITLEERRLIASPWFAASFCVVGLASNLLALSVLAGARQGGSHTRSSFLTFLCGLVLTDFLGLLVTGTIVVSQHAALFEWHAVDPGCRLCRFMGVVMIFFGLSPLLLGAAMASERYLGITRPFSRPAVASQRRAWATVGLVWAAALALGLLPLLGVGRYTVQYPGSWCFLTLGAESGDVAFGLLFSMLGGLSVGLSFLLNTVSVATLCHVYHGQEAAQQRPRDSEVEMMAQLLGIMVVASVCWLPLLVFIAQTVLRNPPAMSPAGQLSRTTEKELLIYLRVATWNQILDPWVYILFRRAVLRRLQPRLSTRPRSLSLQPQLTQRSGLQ

[4] = biological target: T3, Progesterone receptor (Homo sapiens, UniProt P06401); assay type: functional
T3 sequence (P06401 whole entry): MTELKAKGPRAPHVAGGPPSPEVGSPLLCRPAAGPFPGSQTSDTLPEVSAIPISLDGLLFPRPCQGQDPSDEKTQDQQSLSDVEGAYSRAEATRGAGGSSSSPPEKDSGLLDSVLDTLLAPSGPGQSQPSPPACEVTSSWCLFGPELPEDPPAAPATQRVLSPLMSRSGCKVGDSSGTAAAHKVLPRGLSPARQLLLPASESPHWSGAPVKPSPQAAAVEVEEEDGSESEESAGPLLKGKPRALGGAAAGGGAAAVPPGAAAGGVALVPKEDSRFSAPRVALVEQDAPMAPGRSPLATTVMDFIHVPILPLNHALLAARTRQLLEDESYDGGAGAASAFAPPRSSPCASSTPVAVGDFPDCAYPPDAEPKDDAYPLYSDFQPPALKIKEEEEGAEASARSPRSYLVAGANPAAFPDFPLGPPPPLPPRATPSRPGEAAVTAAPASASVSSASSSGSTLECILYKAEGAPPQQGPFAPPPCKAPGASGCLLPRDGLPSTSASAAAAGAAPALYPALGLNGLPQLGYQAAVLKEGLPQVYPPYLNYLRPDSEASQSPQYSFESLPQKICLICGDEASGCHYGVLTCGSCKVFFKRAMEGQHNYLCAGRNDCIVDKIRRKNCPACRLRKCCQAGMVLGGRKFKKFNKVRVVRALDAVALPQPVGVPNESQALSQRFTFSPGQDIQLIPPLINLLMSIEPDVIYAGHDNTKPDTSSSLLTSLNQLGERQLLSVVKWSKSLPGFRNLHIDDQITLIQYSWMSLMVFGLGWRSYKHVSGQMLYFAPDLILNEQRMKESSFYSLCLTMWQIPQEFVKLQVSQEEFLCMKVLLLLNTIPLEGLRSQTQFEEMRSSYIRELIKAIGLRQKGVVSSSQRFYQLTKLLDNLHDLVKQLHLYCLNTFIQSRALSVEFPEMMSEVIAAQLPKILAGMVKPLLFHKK

[5] = biological target: T4, Alpha-2A adrenergic receptor (Homo sapiens, UniProt P08913); assay type: functional, cell-based
T4 sequence (P08913 whole entry): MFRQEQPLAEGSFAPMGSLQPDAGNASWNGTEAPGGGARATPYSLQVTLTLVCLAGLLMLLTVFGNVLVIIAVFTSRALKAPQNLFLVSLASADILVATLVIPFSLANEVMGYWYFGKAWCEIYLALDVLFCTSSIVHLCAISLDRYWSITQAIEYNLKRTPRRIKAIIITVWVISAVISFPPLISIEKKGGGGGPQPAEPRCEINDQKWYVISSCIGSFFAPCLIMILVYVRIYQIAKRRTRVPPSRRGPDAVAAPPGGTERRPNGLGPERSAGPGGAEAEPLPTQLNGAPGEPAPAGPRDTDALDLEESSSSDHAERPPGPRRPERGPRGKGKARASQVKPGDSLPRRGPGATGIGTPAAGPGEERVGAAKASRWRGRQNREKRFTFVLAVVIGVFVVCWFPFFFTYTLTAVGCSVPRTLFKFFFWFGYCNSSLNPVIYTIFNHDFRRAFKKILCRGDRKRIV

[6] = biological target: Cannabinoid receptor 1 (Homo sapiens, UniProt P21554); assay type: functional, cell-based
Sequence of Cannabinoid receptor 1 (P21554 whole entry): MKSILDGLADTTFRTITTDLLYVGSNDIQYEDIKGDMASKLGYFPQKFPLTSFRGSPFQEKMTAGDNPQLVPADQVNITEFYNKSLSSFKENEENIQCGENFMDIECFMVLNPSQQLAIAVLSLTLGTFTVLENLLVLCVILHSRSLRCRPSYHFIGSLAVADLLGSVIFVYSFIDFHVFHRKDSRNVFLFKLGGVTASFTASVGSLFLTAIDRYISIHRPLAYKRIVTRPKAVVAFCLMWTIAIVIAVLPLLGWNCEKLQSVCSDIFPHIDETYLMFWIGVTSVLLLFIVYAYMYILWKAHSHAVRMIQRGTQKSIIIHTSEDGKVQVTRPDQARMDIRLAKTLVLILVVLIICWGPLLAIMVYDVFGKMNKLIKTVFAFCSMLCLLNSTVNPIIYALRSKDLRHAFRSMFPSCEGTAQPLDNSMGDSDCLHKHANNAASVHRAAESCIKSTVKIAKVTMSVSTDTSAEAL

[7] = biological target: Kappa-type opioid receptor (Homo sapiens, UniProt P41145)
Sequence of Kappa-type opioid receptor (P41145 whole entry): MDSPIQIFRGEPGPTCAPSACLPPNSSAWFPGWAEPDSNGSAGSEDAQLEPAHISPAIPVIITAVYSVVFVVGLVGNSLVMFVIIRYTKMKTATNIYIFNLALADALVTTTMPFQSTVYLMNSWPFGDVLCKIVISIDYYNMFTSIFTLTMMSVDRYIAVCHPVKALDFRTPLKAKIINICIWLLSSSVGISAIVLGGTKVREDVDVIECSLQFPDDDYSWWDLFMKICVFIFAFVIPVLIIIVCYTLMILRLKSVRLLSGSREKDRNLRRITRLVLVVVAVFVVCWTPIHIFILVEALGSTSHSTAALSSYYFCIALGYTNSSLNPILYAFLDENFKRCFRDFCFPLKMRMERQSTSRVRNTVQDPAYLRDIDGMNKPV

[8] = biological target: T5, Equilibrative nucleoside transporter 1 (Homo sapiens, UniProt Q99808)
T5 sequence (Q99808 whole entry): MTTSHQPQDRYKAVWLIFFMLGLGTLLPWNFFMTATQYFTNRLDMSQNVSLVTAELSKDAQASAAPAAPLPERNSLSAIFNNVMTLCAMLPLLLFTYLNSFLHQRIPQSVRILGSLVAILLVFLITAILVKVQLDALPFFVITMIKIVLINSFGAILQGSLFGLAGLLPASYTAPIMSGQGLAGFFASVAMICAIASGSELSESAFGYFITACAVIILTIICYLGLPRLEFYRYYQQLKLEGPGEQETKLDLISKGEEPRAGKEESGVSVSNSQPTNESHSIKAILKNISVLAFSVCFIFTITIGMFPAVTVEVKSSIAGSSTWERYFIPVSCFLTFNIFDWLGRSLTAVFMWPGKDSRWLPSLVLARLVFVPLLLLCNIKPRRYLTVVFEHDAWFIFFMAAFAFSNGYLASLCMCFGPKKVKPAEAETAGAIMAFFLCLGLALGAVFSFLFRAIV
Also: assay procedure not described here.

Sequence of Vasopressin V1a receptor (P37288 whole entry): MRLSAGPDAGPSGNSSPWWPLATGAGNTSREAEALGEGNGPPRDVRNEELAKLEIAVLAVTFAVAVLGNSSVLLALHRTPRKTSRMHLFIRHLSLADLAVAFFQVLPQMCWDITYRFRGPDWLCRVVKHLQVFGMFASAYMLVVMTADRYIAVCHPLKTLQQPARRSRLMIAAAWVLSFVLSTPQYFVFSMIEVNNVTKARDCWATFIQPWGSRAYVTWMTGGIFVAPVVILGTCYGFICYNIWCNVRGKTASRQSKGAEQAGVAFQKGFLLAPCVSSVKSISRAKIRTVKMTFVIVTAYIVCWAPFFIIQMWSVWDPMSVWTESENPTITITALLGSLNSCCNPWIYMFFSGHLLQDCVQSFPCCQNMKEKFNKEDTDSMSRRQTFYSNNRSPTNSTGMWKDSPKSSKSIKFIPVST

Row | Structure (SMILES) | AC50 [1] [µM] | AC50 [2] [µM] | AC50 [3] [µM] | AC50 [4] [µM] | AC50 [5] [µM] | AC50 [6] [µM] | AC50 [7] [µM] | AC50 [8] [µM]
1 | CC(C)(C)C(=O)Oc1ccc(S(=O)(=O)Nc2ccccc2C(=O)NCC(=O)O)cc1 | > 30 | > 30 | > 30 | > 30 | > 30 | > 30 | > 30 | 
2 | Cc1ccc(-n2nccn2)c(C(=O)N2CCN(c3nc4cc(Cl)ccc4o3)CC[C@H]2C)c1 [SUVOREXANT] | > 30 | > 10 | > 10 | > 30 | > 30 | > 30 | > 30 | 
3 | CN1C(=O)OC(C)(C)C1=O [TRIMETHADIONE] |  | > 10 | > 10 | > 10 | > 10 | > 30 | > 10 | > 10
4 | Cn1c(=O)c2c(ncn2CC2OCCO2)n(C)c1=O [DOXOFYLLINE] |  | > 30 | > 30 | > 30 | > 30 | > 30 | > 30 | > 30
5 | CC=CC(=O)N(CC)c1ccccc1C |  | > 10 | > 10 | > 10 | > 10 | > 30 | > 10 | > 10
6 | CCC1(CC)C(=O)NCC(C)C1=O (stereo unspecified) [METHYPRYLON] | > 30 | > 30 |  | > 30 | > 30 | > 30 | > 30 | > 30
7 | O=C(O)/C=C/c1ccc(Cn2ccnc2)cc1 [OZAGREL] | > 30 | > 30 | > 30 | > 30 | > 30 | > 30 | > 30 | 
8 | CO/N=C(\C(=O)N[C@@H]1C(=O)N2C(C(=O)O)=C(CSc3nnnn3C)CS[C@H]12)c1csc(N)n1 [CEFMENOXIME] | > 30 | > 30 |  | > 30 | > 30 | > 30 |  | > 30
9 | COc1ccc2c3c1O[C@H]1C(=O)CC[C@@]4(O)[C@@H](C2)N(C)CC[C@]314 [OXYCODONE] | > 30 | > 30 | > 30 | > 30 | > 30 | > 30 |  | > 30
10 | Clc1ccc(CCCOCCCN2CCCCC2)cc1 [PITOLISANT] | > 30 | > 30 | > 30 | > 30 |  | > 30 | > 30 | 
11 | Nc1nc(N)nc(-c2cc(Cl)ccc2Cl)n1 [IRSOGLADINE] |  | > 30 | > 30 | > 30 | > 30 | > 30 |  | 
12 | NCC(=O)CCC(=O)O [AMINOLEVULINIC ACID] | > 30 | > 30 | > 30 | > 30 | > 30 | > 30 | > 30 | 
13 | C/C(O)=C(\C#N)C(=O)Nc1ccc(C(F)(F)F)cc1 [TERIFLUNOMIDE] | > 30 | > 30 |  | > 30 | > 30 | > 30 |  | > 30
14 | CN1C(=O)C(O)N=C(c2ccccc2Cl)c2cc(Cl)ccc21 (stereo unspecified) [LORMETAZEPAM] | > 30 | > 30 | > 30 | > 30 |  | > 30 | 8.1 | > 30
15 | CCN(CC)C(=O)N[C@H]1C[C@@H]2c3cccc4[nH]cc(c34)C[C@H]2N(C)C1 [TERGURIDE] | > 30 | > 30 |  | > 30 | 0.018 | > 30 | > 30 | > 30
16 | CC(=O)O[C@H]1CC[C@@]2(C)C(=CC[C@@H]3[C@@H]2CC[C@]2(C)C(c4cccnc4)=CC[C@@H]32)C1 [ABIRATERONE ACETATE] | > 30 | > 30 | > 30 | > 30 | > 30 | > 30 |  | > 30
17 | COc1ccc(CCN(C)CCCC(C#N)(c2cc(OC)c(OC)c(OC)c2)C(C)C)cc1OC (stereo unspecified) [GALLOPAMIL] | > 30 | > 30 | > 30 | > 30 | 25 | > 30 | 2.5 | 
18 | CCOC(=O)[C@H](CCc1ccccc1)N[C@@H](C)C(=O)N1C(=O)N(C)C[C@H]1C(=O)O | > 30 | > 30 | > 30 | > 30 | > 30 | > 30 |  | > 30
19 | CCOC(=O)OC(C)OC1=C(C(=O)Nc2ccccn2)N(C)S(=O)(=O)c2ccccc21 (stereo unspecified) [AMPIROXICAM] |  | > 30 | > 30 | > 30 | > 30 | > 30 | > 30 | > 30
20 | CC(C)OC(=O)CCC/C=C\C[C@@H]1[C@@H](CC[C@@H](O)CCc2ccccc2)[C@H](O)C[C@@H]1O [LATANOPROST] | > 30 | > 30 |  | > 30 | > 30 | > 30 | > 30 | > 30
21 | COc1cc2c(N)nc(N3CCN(C(=O)OCC(C)(C)O)CC3)nc2c(OC)c1OC [TRIMAZOSIN] | > 30 | > 30 | > 30 | > 30 | > 30 | > 30 | > 30 | 
22 | CCCc1nc(C(C)(C)O)c(C(=O)OCc2oc(=O)oc2C)n1Cc1ccc(-c2ccccc2-c2nnn[nH]2)cc1 [OLMESARTAN MEDOXOMIL] | > 30 | > 10 | > 50 |  | > 10 | > 30 | > 10 | > 50
23 | CC(=O)O[C@H]1C[C@@H]2CC[C@@H]3[C@H](CC[C@@]4(C)[C@H]3C[C@H]([N+]3(C)CCCCC3)[C@@H]4OC(C)=O)[C@@]2(C)C[C@@H]1N1CCCCC1 [VECURONIUM] |  | > 30 | > 30 | > 30 | > 30 | > 30 | > 30 | > 30
